In patent US20170022215A1, “Compounds for Eradicating or Inhibiting Proliferation of Cancer Stem Cells” (Godavari Biorefineries Limited, priority 2014, published 2017):

Tests used:
[1] = tested on: CD44 expressing population (cancer stem cells) of DU145 cells; assay: Flow cytometry analysis (anti-CD44-PE / anti-CD24-FITC staining) of DU145 prostate cancer cells; assay type: cell-based; conditions: IC25 drug conc.; for effect on CD44 expressing cell population of DU145 cells (quadrant plot): 48 hrs exposure; for activity on CD44 expressing cells (cancer stem cells population) of DU145 cancer cells compared to standard therapeutic drug Cisplatin: 48 hrs, bar graph FIG. 10, versus Cisplatin
Description: (§1) DU145 is a moderately metastatic prostate cancer cell line. Flow cytometry study was conducted to observe the effect of Ethyl-5-methyl-4-(phenylamino) thieno[2,3-d]pyrimidine-6-carboxylate and Ethyl-5-methyl-4-(4-methylphenyl)amino thieno[2,3-d]pyrimidine-6-carboxylate on DU145 cells compared to standard therapeutic drug Cisplatin.
(§2) 1. […] In the quadrant plot upper left region (Q2-UL) only CD44 expressing cells were observed. In the quadrant plot upper right region (Q2-UR) CD44 and CD24 expressing cells were observed. In the quadrant plot lower left region (Q2-LL) […]. In the quadrant plot lower right region (Q2-LR) […].

[2] = tested on: CD44 expressing population (cancer stem cells) of MDA MB231 cells; assay: Flow cytometry analysis (anti-CD44-PE / anti-CD24-FITC staining) of MDA MB231 breast cancer cells; assay type: cell-based; conditions: IC25 drug conc.; for effect on CD44 expressing cell population of MDA MB231 cells (quadrant plot): 48 hrs exposure; for activity on CD44 expressing cells (cancer stem cells population) of MDA MB231 cancer cells compared to standard therapeutic drug Cisplatin: 48 hrs, bar graph FIG. 5, versus Cisplatin
Description: as §1, with “MDA MB231” for “DU145”, “highly” for “moderately”, “breast” for “prostate”
as §2

| Compound | effect on CD44 expressing cell population of DU145 cells (quadrant plot) [1] | effect on CD44 expressing cell population of MDA MB231 cells (quadrant plot) [2] | activity on CD44 expressing cells (cancer stem cells population) of DU145 cancer cells compared to standard therapeutic drug Cisplatin [1] | activity on CD44 expressing cells (cancer stem cells population) of MDA MB231 cancer cells compared to standard therapeutic drug Cisplatin [2] |
| --- | --- | --- | --- | --- |
| N.N.[Cl][Pt][Cl] [Cisplatin, reference compound] | did not have much effect | did not have much effect | – | – |
| CCOC(=O)c1sc2ncnc(Nc3ccc(C)cc3)c2c1C [Ethyl-5-methyl-4-(4-methylphenyl)amino thieno[2,3-d]pyrimidine-6-carboxylate] | marked effect | marked effect | much better and enhanced activity | much better and enhanced activity |
| CCOC(=O)c1sc2ncnc(Nc3ccccc3)c2c1C [Ethyl-5-methyl-4-(phenylamino) thieno[2,3-d]pyrimidine-6-carboxylate] | marked effect | marked effect | much better and enhanced activity | much better and enhanced activity |
